Test results from patent US20260364214A1, “MULTIVALENT FIBROBLAST ACTIVATION PROTEIN LIGANDS FOR TARGETED DELIVERY APPLICATIONS” (Philochem AG, priority 2022, published 2026).

Columns and labels:
[1] = tested on: SK-RC-52.hFAP tumors; test: Dose escalation / dose optimization for radiotherapeutic applications; assay type: in vivo, mouse (female athymic Balb/c AnNRj-Foxn1); conditions: 24 h
Protocol: Prior to the dose optimization study for radiotherapeutic applications, precursors (0.24 to 180 nmol) were dissolved in milliQ water and diluted with sodium acetate (1 M in water, pH=4.5). ^177Lu solution (4 MBq) were added and the mixture was heated at 90 °C for 10 minutes, followed by dilution with PBS to achieve final volume of 400 μL (4 doses of 100 μL each).
Female athymic Balb/c AnNRj-Foxn1 mice bearing subcutis SK-RC-52.hFAP tumors were injected intravenously with eight different doses of ^177Lu-Tri-ESV6-DOTAGA ranging from 3 nmol/kg to 2250 nmol/kg. The mice were sacrificed after 24 h and tumor and healthy organs were harvested and measured with a gamma counter. Since the best tumor to organ ratios are obtained with high doses ranging between 90 and 250 nmol/kg, we anticipate that the ideal dose in human patients for radiotherapeutic applications will be between 1 and 3 milligram per patient. e) Therapeutic efficacy evaluation in tumor bearing mice in dose escalation and in combination with L19-IL2

[2] = Tolerability (body weight change) of 177Lu conjugates; assay type: in vivo, mouse (athymic Balb/c AnNRj-Foxn1); conditions: single administration, 250 nmol/kg, 250 MBq/kg
Protocol: The anti-cancer efficacy of ^177Lu-ESV6, ^177Lu-Bi-ESV6 and ^177Lu-Tri-ESV6 was assessed in athymic Balb/c AnNRj-Foxn1 mice bearing SK-RC-52.hFAP tumor in the right flank. ^177Lu-ESV6, ^177Lu-Bi-ESV6 or ^177Lu-Tri-ESV6 were intravenously administered at a dose of 250 nmol/kg, 250 MBq/kg (single administration on day 9 after tumor implantation). Therapy experiments started when the average volume of established tumors had reached 100-150 mm^3. Body weight of the animals and tumor volume were daily measured and recorded. Tumor dimensions were measured with an electronic caliper and tumor volume was calculated with the formula (long side, mm)×(short side, mm)×(short side, mm)×0.5. Animals were euthanized when one or more termination criterium indicated by the experimental license was reached. Prism 7 software (GraphPad Software) was used for data analysis.

[3] = target: T1, recombinant hFAP (Homo sapiens, UniProt Q12884); test: hFAP inhibition assay (Z-Gly-Pro-AMC substrate); assay type: biochemical
T1 sequence (Q12884 26-760 limits assumed): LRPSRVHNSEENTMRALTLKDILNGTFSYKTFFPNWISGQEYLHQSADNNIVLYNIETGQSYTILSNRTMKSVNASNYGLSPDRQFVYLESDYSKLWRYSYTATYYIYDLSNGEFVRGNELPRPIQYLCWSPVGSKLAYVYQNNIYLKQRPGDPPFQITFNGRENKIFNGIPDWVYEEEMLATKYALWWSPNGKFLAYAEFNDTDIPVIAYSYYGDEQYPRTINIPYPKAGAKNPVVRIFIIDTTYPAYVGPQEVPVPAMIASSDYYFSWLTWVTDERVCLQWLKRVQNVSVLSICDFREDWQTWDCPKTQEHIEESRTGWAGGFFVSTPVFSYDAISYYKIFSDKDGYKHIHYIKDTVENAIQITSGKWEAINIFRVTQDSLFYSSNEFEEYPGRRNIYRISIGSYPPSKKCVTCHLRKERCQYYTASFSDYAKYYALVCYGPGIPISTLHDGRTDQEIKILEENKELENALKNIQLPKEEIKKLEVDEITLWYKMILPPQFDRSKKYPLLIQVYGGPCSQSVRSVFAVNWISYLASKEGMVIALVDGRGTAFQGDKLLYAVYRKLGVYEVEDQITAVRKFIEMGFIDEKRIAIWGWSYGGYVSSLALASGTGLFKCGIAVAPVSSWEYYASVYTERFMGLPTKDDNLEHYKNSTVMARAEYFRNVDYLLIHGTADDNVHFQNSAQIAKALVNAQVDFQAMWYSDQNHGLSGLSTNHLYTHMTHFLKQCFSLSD
Protocol: (§1) Enzymatic activity of hFAP on the Z-Gly-Pro-AMC substrate was measured at room temperature on a microtiter plate reader, monitoring the fluorescence at an excitation wavelength of 360 nm and an emission wavelength of 465 nm. The reaction mixture contained substrate (20 μM), protein (66 μM, constant), assay buffer (50 mM Tris, 100 mM NaCl, and 1 mM EDTA, pH=7.4), and inhibitors with serial dilution from 167 nM to 80 fM, 1:2 in a total volume of 20 μL. Experiments were performed in triplicate, and the mean fluorescence values were fitted using Prism 7. The value is defined as the concentration of inhibitor required to reduce the enzyme activity by 50% after addition of the substrate [FIG. 1 and FIG. 8].
According to the same procedure, further comparative inhibition assays with trimeric binders having inter alia different lengths of linker group B and/or different payload groups C were performed with compounds Tri-ESV6-ValCit-MMAE (14), Tri-ESV6-linker-DOTAGA (13) and diastereoisomers of Tri-ESV6-DOTAGA (11, 12) [FIG. 18]. Comparative hFAP inhibition assays with tetravalent binders 10 and 29 were also performed [FIG. 20].
as §1, with “substrate.” for “substrate [FIG. 1 and FIG. 8].”
as §1, with “e) Inhibition assay with Tri-ESV6-DOTAGA, Tetra-ESV6-DOTAGA, Hexa-ESV6-DOTAGA, Octa-ESV6-DOTAGA, ESV6-L-DOTAGA and BI-ESV6-L-DOTAGA. Enzymatic” for “Enzymatic”, “substrate.” for “substrate [FIG. 1 and FIG. 8].”

N#CC1CC(F)(F)CN1C(=O)CNC(=O)c1ccnc2c(NC(=O)CCC(=O)NCCNC(=O)CCOCC(COCCC(=O)NCCNC(=O)CCC(=O)Nc3cccc4c(C(=O)NCC(=O)N5CC(F)(F)CC5C#N)ccnc34)(COCCC(=O)NCCNC(=O)CCC(=O)Nc3cccc4c(C(=O)NCC(=O)N5CC(F)(F)CC5C#N)ccnc34)NC(=O)CCC(C(=O)O)N3CCN(CC(=O)[O-])CCN(CC(=O)[O-])CCN(CC(=O)[O-])CC3)cccc12.[177Lu+3] (stereo not shown) [^177Lu-Tri-ESV6-DOTAGA]
% ID/g in tumor, in words ([1]; highest doses (>90 nmol/kg)): drops | uptake in healthy organs, in words ([1]; lowest doses (<10 nmol/kg)): partially uptaken in healthy organs | tolerability (body weight change), in words [2]: very well tolerated

N#C[C@@H]1CC(F)(F)CN1C(=O)CNC(=O)c1ccnc2c(NC(=O)CCC(=O)NCCNC(=O)CCC(C(=O)O)N3CCN(CC(=O)[O-])CCN(CC(=O)[O-])CCN(CC(=O)[O-])CC3)cccc12.[177Lu+3] (stereo partly shown) [^177Lu-ESV6-DOTAGA, reference compound]
tolerability (body weight change), in words [2]: very well tolerated

N#CC1CC(F)(F)CN1C(=O)CNC(=O)c1ccnc2c(NC(=O)CCC(=O)NCCCCC(NC(=O)CCC(=O)Nc3cccc4c(C(=O)NCC(=O)N5CC(F)(F)CC5C#N)ccnc34)C(=O)NCCNC(=O)CCC(C(=O)O)N3CCN(CC(=O)[O-])CCN(CC(=O)[O-])CCN(CC(=O)[O-])CC3)cccc12.[177Lu+3] (stereo not shown) [^177Lu-Bi-ESV6-DOTAGA, reference compound]
tolerability (body weight change), in words [2]: very well tolerated

N#C[C@@H]1CC(F)(F)CN1C(=O)CNC(=O)c1ccnc2c(NC(=O)CCC(=O)NCCNC(=O)CCOCC(COCCC(=O)NCCNC(=O)CCC(=O)Nc3cccc4c(C(=O)NCC(=O)N5CC(F)(F)C[C@H]5C#N)ccnc34)(COCCC(=O)NCCNC(=O)CCC(=O)Nc3cccc4c(C(=O)NCC(=O)N5CC(F)(F)C[C@H]5C#N)ccnc34)NC(=O)CCC(C(=O)O)N3CCN(CC(=O)O)CCN(CC(=O)O)CCN(CC(=O)O)CC3)cccc12 (stereo partly drawn) [Tri-ESV6-DOTAGA, 2,2′,2″-(10-(19-carboxy-1-((4-((2-((S)-2-cyano-4,4-difluoropyrrolidin-1-yl)-2-oxoethyl)carbamoyl)quinolin-8-yl)amino)-14,14-bis((3-((2-(4-((4-((2-((S)-2-cyano-4,4-difluoropyrrolidin-1-yl)-2-oxoethyl)carbamoyl)quinolin-8-yl)amino)-4-oxobutanamido)ethyl)amino)-3-oxopropoxy)methyl)-1,4,9,16-tetraoxo-12-oxa-5,8,15-triazanonadecan-19-yl)-1,4,7,10-tetraazacyclododecane-1,4,7-triyl)triacetic acid]
IC50 ([3]; Z-Gly-Pro-AMC 20 μM, protein 66 μM, pH 7.4, room temperature): 0.012 nM | IC50 / inhibitory activity, comparison in words ([3]; recombinant hFAP): remarkably lower IC50 compared to ESV6-DOTAGA, Bi-ESV6-DOTAGA and FAP-2286 | lower IC50 compared to Tri-ESV6-PEG12-DOTAGA ([3]; vs Tri-ESV6-PEG12-DOTAGA): ~ 1000 fold | improvement in IC50 as compared to Bi-ESV6-DOTAGA ([3]; vs bivalent Bi-ESV6-DOTAGA): 10 fold | improvement in IC50 as compared to ESV6-DOTAGA ([3]; vs monovalent ESV6-DOTAGA): 43 fold
